For two molecules, remaining activity results are on record in publication PMC7224190, “Pharmacological inhibition of PRMT7 links arginine monomethylation to the cellular stress response” (Nature Communications, 2020).

What all share (assay): biochemical
Set-up in all cases: radiometric methyltransferase selectivity assay with tritiated SAM, per cent activity
What all share (details): read-out: % of control remaining

The target in assay [1] is T1, PRMT9 (Homo sapiens, UniProt Q6P2P2).
T1 sequence (Q6P2P2 1-845): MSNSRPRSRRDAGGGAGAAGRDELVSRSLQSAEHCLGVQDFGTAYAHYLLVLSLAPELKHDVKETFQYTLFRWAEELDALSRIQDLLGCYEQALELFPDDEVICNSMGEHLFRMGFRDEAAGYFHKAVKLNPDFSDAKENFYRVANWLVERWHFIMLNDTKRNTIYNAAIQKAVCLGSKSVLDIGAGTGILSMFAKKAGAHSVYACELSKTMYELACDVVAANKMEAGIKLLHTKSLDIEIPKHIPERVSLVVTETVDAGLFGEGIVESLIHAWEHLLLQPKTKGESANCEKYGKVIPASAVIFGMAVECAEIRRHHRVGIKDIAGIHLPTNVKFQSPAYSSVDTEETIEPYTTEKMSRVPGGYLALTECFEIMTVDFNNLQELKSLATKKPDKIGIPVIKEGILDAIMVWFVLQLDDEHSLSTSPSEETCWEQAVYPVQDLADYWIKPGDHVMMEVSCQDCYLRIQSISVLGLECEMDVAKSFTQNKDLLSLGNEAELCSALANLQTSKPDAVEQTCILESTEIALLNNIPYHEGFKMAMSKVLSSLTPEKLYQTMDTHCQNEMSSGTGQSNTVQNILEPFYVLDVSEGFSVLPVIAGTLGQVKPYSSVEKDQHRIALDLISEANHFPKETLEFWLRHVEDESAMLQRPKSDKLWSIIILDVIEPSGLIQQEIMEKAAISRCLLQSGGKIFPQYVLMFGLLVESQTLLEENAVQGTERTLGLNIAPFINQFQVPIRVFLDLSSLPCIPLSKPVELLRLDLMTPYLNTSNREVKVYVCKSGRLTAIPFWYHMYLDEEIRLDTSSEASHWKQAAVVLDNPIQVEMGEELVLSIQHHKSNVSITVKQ
The procedure:
(§1) The methyltransferase selectivity was assessed at two compound concentrations of 1 and 10 μM by radiometric assays using tritiated-SAM. For methyltransferases: MLL1, MLL3, EZH1 (PRC2), and EZH2 (PRC2), G9a, GLP, SUV39H1, SUV39H2, SUV420H1, SUV420H2, SETD2, SETD8, SETDB1, SETD7, PRMT1, PRMT3, PRMT4, PRMT5/ MEP50 complex, PRMT6, PRMT7, PRMT8, PRMT9, PRDM9, SMYD2, SMYD3, DNMT1, and BCDIN3D the incorporation of a tritium-labeled methyl group into biotinylated substrate was monitored using scintillation proximity assay (SPA). Briefly, a 10 μL reaction containing ^3H-SAM and substrate at concentrations close to the apparent Km values for each enzyme (balanced conditions) was prepared. The reactions were quenched with 10 μL of 7.5 M guanidine hydrochloride; 180 μL of 20 mM Tris buffer (pH 8.0) were added, and the mixture was transferred to a 96-well FlashPlate and incubated for 1 h. The counts per minute (CPM) was measured on a TopCount plate reader. The CPM in the absence of compound or enzyme was defined as 100% activity and background (0%), respectively, for each dataset[74]–[76]. Selectivity of SGC8158 against 342 kinases was evaluated in a kinase panel TR-FRET assay at 1 and 0.1 μM compound in duplicates as described before. Briefly, tagged kinases were incubated with compound and staurosporine-based fluorescent probe where the binding was detected using Tb conjugated anti-tag antibody energy transfer to the probe. Excitation wavelength was 337 nm and fluorescent emission signal was measured for Tb (486 nm) and fluorescent probe (BODIPY, 515 nm). Specific and non-specific binding was determined in the absence and presence of unlabeled staurosporine.

The target in assay [2] is T2, G9A (Homo sapiens, UniProt Q96KQ7).
T2 construct: gene EHMT2
T2 sequence (Q96KQ7 1-1210): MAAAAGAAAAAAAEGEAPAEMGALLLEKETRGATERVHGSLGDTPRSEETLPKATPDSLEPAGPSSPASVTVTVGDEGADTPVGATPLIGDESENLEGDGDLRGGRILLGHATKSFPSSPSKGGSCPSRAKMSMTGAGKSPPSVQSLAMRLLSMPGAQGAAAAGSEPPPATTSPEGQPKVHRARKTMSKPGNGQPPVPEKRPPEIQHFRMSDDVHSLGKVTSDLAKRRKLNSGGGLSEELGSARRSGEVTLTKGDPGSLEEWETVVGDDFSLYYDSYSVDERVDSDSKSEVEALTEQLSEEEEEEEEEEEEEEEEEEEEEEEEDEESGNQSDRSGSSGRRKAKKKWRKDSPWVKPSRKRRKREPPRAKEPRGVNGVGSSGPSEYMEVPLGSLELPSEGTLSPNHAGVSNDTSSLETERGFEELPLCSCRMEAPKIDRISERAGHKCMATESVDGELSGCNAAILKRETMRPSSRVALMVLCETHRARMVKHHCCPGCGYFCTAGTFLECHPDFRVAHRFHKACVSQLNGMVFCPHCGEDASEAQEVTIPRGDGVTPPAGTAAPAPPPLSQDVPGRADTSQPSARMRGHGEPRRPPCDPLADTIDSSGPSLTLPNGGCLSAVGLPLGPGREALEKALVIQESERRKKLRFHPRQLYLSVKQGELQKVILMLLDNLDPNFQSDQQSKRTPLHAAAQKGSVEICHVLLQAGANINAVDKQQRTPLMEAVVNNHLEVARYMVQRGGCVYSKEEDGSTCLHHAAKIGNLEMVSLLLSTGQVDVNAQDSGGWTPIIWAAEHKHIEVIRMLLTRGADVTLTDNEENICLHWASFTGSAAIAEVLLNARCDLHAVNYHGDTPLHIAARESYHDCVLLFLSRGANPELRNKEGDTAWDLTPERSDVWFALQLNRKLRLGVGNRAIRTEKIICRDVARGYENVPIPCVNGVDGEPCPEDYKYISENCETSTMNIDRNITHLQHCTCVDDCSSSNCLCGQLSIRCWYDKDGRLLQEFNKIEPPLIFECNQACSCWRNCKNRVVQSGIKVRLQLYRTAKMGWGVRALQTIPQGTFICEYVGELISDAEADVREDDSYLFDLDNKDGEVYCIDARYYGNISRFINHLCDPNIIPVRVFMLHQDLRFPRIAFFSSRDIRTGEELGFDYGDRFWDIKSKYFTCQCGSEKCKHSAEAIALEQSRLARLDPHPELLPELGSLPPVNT
The procedure:
as §1

The target in assay [3] is PRMT6 (Homo sapiens, UniProt Q96LA8). The procedure: as §1
Sequence of PRMT6 (Q96LA8 whole entry): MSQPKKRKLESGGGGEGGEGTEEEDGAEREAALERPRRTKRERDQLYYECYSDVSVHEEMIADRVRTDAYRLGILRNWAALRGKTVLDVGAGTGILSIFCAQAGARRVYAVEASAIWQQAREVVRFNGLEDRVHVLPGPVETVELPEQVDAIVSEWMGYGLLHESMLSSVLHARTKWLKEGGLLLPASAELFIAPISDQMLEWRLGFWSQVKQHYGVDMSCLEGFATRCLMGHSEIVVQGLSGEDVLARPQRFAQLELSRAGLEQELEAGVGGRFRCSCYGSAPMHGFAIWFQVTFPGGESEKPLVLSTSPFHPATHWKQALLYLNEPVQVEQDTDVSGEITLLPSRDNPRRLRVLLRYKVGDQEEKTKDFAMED

The structures appear in SMILES notation.

Turning to `CC1(C)O[C@@H]2[C@H](O1)[C@@H](CSCCCCNCc1cccc(-c3ccc(Cl)cc3)c1)O[C@H]2n1cnc2c(N)ncnc21` [SGC8158N], the remaining activity at 1 µM in assay [1] was found to be 106%; in assay [2] it was 99%; in assay [3] it was 94%. Moreover, the remaining activity at 10 µM turned out to be 95% in assay [1], 98% in assay [2] and 87% in assay [3].
With `Nc1ncnc2c1ncn2[C@@H]1O[C@H](CSCCCCNCc2cccc(-c3ccc(Cl)cc3)c2)[C@@H](O)[C@H]1O` [SGC8158], the remaining activity at 1 µM in assay [1] turned out to be 19%; in assay [2], 100%; in assay [3], 100%. The remaining activity at 10 µM in assay [1] was determined as 4%; in assay [2] it was 99%; in assay [3] it was 58%.
